From the METLIN SMRT retention time set (Domingo-Almenara et al. 2019)

Assay: gradient 5% acetonitrile 3 min, to 50% in 2 min, to 85% in 15 min, held 3 min, 100 µL/min
Details: column: Zorbax Extend-C18 2.1 x 50 mm; eluents: water / acetonitrile, 0.1% formic acid
Summary of the method: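 The mobile phases were water and acetonitrile, each with 0.1% formic acid, pumped at 100 μL/min through a Zorbax Extend-C18 column (2.1 × 50 mm, 1.8 μm). Pure standards were injected as mixtures of ~100 molecules and detected by a quadrupole time-of-flight mass spectrometer in positive and negative ionization mode. Retention time came from computationally picked adduct peaks, each inspected by hand.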

SMILES | RP-LC retention time [s]
O=C(CN1N=C(c2ccccc2)c2ccccc2S1(=O)=O)Nc1cccc(Cl)c1 | 1020
COCCc1noc(-c2cnc3nc(C)ccc3c2Nc2ccc(OC)cc2)n1 | 681
CC(C)c1cccc(NS(=O)(=O)c2cc3n(c2)CCCNC3=O)c1 | 723
O=C(Cn1nc2c(N3CCCCCC3)nccn2c1=O)NCc1cc(F)cc(F)c1 | 744
Cc1cc(C)cc(N2CCC(N)C2=O)c1 (stereo not given) | 605
COc1ccc(CNC(=O)NCC2(c3ccc(F)cc3)CC2)cc1 | 817
COc1cc(CNC(=O)c2cn3cc(C)ccc3n2)cc(OC)c1 | 604
COCCN1C(=O)c2cccn2CC1CNC(=O)c1ccc(Cc2c(C)n[nH]c2C)o1 (stereo not given) | 594
Cc1nc(Cn2cccc2C(=O)Nc2cccc(Br)c2)no1 | 936
COc1ccccc1-c1noc(-c2nc(-c3ccc4c(c3)OCO4)no2)n1 | 1120
O=C(N[C@H]1C[C@@H]2C[C@H]1N(C(=O)c1ccccc1C(F)(F)F)C2)c1ccccc1 | 778
O=C(CN1C(=O)CC(c2ccccc2)S(=O)(=O)c2ccccc21)Nc1cccc(F)c1 (stereo not given) | 863
O=C(Cn1nc2n(c1=O)CCCC2)NCCCc1ccccc1 | 709
Cc1nsc2ncc(C(=O)N3CCOCC3)c(N3CCC(C(=O)Nc4ccc(F)cc4Cl)CC3)c12 | 811
COc1ccc(-c2nnc(-c3cc(S(=O)(=O)N4CCSCC4)ccc3Cl)o2)cc1 | 1080
O=C(Nc1ccc(F)cc1F)C1(CCO)CCN(c2ncccn2)C1 (stereo not given) | 611
Cc1nn(-c2ccccc2)c(C)c1S(=O)(=O)N1CCC(C(=O)Nc2ccc3c(c2)OCCO3)CC1 | 914
Cc1cc(C)cc(N2CCC(NC(=O)c3ccc(C#N)cc3)C2=O)c1 (stereo not given) | 854
CC(C)c1ccc(N2C=C(C#N)S(=O)(=O)c3ccccc32)cc1 | 1040
O=C(NC1CCCCCC1)C1CCCN(c2ncnc3c2nc2n3CCCCC2)C1 (stereo not given) | 816
O=C(O)CSc1ccc(NC(=O)Nc2ccccc2F)cc1 | 842
Cc1ccccc1S(=O)(=O)N1CCC2(CC1)CC(OCC1CC1)CCO2 (stereo not given) | 1080
COc1ccc(C(O)Cn2ccn3nc(-c4cc(C)ccc4C)cc3c2=O)cc1OC (stereo not given) | 879

SMILES | RP-LC retention time [s]
CCC(C(=O)N1CCN(c2ccc3nnc(-c4ccco4)n3n2)CC1)c1ccccc1 (stereo not given) | 727
CCCNS(=O)(=O)c1cc(-c2nnc(-c3ccccc3)o2)ccc1OC | 891
CCc1ccc(Nc2nc(C(=O)NCc3ccc(C)o3)nc3ccccc23)cc1 | 923
COc1ccc(C)cc1NC(=O)Cn1c(C)nc2c(sc3nc(-c4ccccc4)ccc32)c1=O | 1110
COc1cc(-c2nc3cccc(C)n3c2Nc2ccc3c(c2)OCCO3)ccc1O | 634
CCOC(=O)c1[nH]c(C)c(C(=O)C(C)N(Cc2ccc(F)cc2)C(=O)C(C)C)c1C (stereo not given) | 950
COc1ccc(Cl)cc1S(=O)(=O)N1CC(c2nc(-c3ccncc3)nn2C)C1 | 664
O=C(O)c1nnn(-c2ccc(F)cc2)c1-c1cccnc1 | 629
COC(=O)C1=CN(c2ccc(F)c(Cl)c2)c2ccc(F)cc2S1(=O)=O | 929
Fc1ccccc1-c1ccc(CNCc2ccc3c(c2)OCO3)o1 | 695
Cc1cc(C(=O)Nc2ccc(S(C)(=O)=O)cc2)no1 | 632
COc1ccc(OC)c(CNC(=O)c2nnc(-c3ccc(S(=O)(=O)N4CCOCC4)cc3)o2)c1 | 826
O=C(Nc1nc(C(=O)N2CCc3ccccc32)co1)c1cccs1 | 730
CC(C)(C)CC(=O)N1CCCC(C(=O)N2CCOCC2)C1 (stereo not given) | 673
COc1ccc(OC)c(CN2CCn3c(nn(CC4CC4)c3=O)C2)c1 | 620
CCCc1cc(SCc2ccc(C(=O)OC)cc2)ncn1 | 992
CSc1cccc(NC(=O)N2CCN(Cc3nc4cc(C)ccc4o3)CC2)c1 | 776
COc1ccc(N2CCN(c3cc(SCC(=O)Nc4cccc(SC)c4)ncn3)CC2)cc1 | 1000
CCN1C(=O)c2cccnc2Sc2cc(CNC(=O)c3ccc(OC)c(OC)c3)ccc21 | 711
C/C=C/c1cc2c(c(=O)o1)C(=O)[C@@H](O)[C@H](C)O2 | 695
Cc1ccc(-c2noc(C3CCCN3C(=O)C(NS(=O)(=O)c3ccc(C)cc3)C(C)C)n2)cc1 (stereo not given) | 1150
COc1ccc(-c2cn3c(CC(=O)Nc4ccc(C(F)(F)F)cc4)csc3n2)cc1 | 869
Cc1cccc2nnc(N3CCN(C(=O)c4ccsc4)CC3)n12 | 614

SMILES | RP-LC retention time [s]
Cc1ccc(Cn2c(=O)n(CCNC(=O)CC(C)C)c3ncccc32)cc1 | 806
O=S(=O)(c1ccc(Br)cc1)N1CCc2nc[nH]c2C1 | 615
O=C(Nc1ccc(Br)cc1F)N1CCc2nc[nH]c2C1 | 593
O=C(Nc1cccc(Cl)c1)c1nnn(-c2ccc(F)cc2)c1-c1cccnc1 | 963
COCCCn1c(C)cc(C(=O)NCC2Cn3cccc3C(=O)N2C)c1C (stereo not given) | 666
COc1ccc(N2C(=O)CCC(C(=O)NCCCN3CCN(C)CC3)C2c2ccc(F)cc2)cc1 (stereo not given) | 526
CCOC(=O)c1ccccc1NC(=O)CSc1cc(N2CCCC2)ncn1 | 914
CCOC(=O)CNC(=O)NC(C(=O)N1CCc2ccccc21)C(C)C (stereo not given) | 783
CN(C(=O)c1cc2c(=O)oc3ccccc3c2n1C)c1cccc(Cl)c1 | 933
CC1CCCN(Cc2nc(Cn3ccn4nc(-c5ccccc5)cc4c3=O)no2)C1 (stereo not given) | 654
Cc1ccc(NC(=O)N2CCc3nc(-c4ccccc4)ncc3C2)cc1F | 988
O=C(c1ccc(-c2cncnc2)nc1)N1CCN(c2ccccc2)CC1 | 716
Cc1cccc(NC(=O)c2cn3c(n2)CCCC3)c1 | 609
CCOC(=O)c1c(C(C)(C)C)oc2ccc(OCC#N)cc12 | 1140
Cc1ccc(N2CC(c3noc(-c4cccs4)n3)CC2=O)cc1 (stereo not given) | 946
CCCCN1CCN(Cc2nc(-c3ccc(N4CCCCC4)nc3)no2)CC1 | 602
CC(C)NC[C@H](O)COc1cccc2ccccc12 | 720
COc1ccc(NC(=O)c2c(OC)cc(=O)n3c2CCCC3)c(OC)c1 | 877
O=S(=O)(c1ccccc1)N1CC(n2cc(COc3ccc(F)cc3)nn2)C1 | 888
COc1cc2c(cc1OC)C(C(=O)NCc1ccc3c(c1)OCO3)C1c3ccccc3CCN1C2=O (stereo not given) | 788
O=C(Cn1cnc2nc3c(cc2c1=O)CCCC3)N1CCN(C(=O)c2ccco2)CC1 | 622
Cc1ccc(S(=O)(=O)Cc2ccc(C(=O)N3CCN(c4ccccn4)CC3)o2)cc1 | 606
CC(C)CCN(C1CCOCC1)C1CCN(C(=O)Nc2cccc(F)c2)CC1 | 650

SMILES | RP-LC retention time [s]
Cc1nc(C)c(C(=O)N(C)C2CCc3nn(CC4CC4)c(=O)n3CC2)s1 (stereo not given) | 626
O=C(Cc1ccccc1F)NCC(=O)Nc1nc2ccccc2[nH]1 | 632
Fc1ccc(CN2CCC(Cc3nc(-c4ccncc4)n[nH]3)C2)c(F)c1 (stereo not given) | 552
O=C(NCC1CC1)c1ccc2c(c1)nc1n2CCN(C2CCCCC2)C1=O | 706
O=C(NCCc1cccs1)c1cccc2[nH]cc(CN3CCOCC3)c12 | 592
O=C(Nc1cnc(-c2ccc(C(F)(F)F)cc2)nc1)C1CCOC1 (stereo not given) | 888
Cc1cc(-c2ccc(S(=O)(=O)N3CCC(C(=O)NC4CCCC4)CC3)o2)n[nH]1 | 737
Cc1sc(NC(=O)c2ccco2)c(CN2CCN(c3ccc(F)cc3)CC2)c1C | 691
COc1cc(NC(=O)CCc2c(C)nn(-c3cc(N(C)C)ncn3)c2C)cc(OC)c1 | 792
COc1ccc(-n2cc(C(=O)O)nn2)cc1OC | 638
O=C(Cc1cccs1)N1CCn2c(nnc2-c2ccccc2)C1 | 679
COC(=O)c1cnc2nc(C)ccc2c1Nc1cccc(Cl)c1F | 704
Cc1ccc(S(=O)(=O)N2CCC(n3c(-c4ccoc4)nc4cccnc43)C2)cc1Cl (stereo not given) | 986
COc1ccc(OC)c(S(=O)(=O)NCC2(C)CCOCC2)c1 | 686
Cc1noc(C)c1CCC(=O)N1CC(n2cc(COc3ccc(F)cc3)nn2)C1 | 736
COc1nc2ccccc2nc1N1CCCC(C(=O)Nc2ccc(Br)cc2)C1 (stereo not given) | 1250
COCCCNC(=O)CCc1nnc2ccc(-c3ccc(C)c(C)c3)nn12 | 718
Cc1ccnc(Nc2nc(C)c(C(=O)N3CCOCC3)s2)c1 | 617
Cc1ccc(NC(=O)N(C)CCc2noc(COc3ccccc3)n2)c(C)c1 | 934
Cc1cc(N2CCN(C(=O)Nc3cccc(C(F)(F)F)c3)CC2)nc(N2CCCCC2)n1 | 789
Cc1ccc2ncn3c(=O)n(CC(=O)Nc4ccc(C(C)C)cc4)nc3c2c1 | 754
